Data as given in patent US8457712B2, “Multi-mode medical device system and methods of manufacturing and using same” (Wisconsin Alumni Research Foundation, priority 2005, dated 2013).

Assay: Diffusion of a fluorescent probe in swollen gelatin gel by FRAP
Assay type: physicochemical
Source text: To assess the stability of DTPA[Gd(III)] in the gelatin coating, the diffusion of a fluorescence probe in gelatin was studied by the technique of fluorescence recovery after photobleaching (FRAP). The instrument and data analysis scheme are described in Kim, S. H. and Yu, H., J. Phys. Chem. 1992, 96, 4034, which is hereby fully incorporated by reference. Fluorescein was used as the fluorescence probe due, in part, to its molecular size being roughly the same as that of DTPA[Gd(III)]. The focus of the study was to examine the possible retardation effects of gelatin concentration and cross-link density on the diffusion, which was determined at room temperature, i.e., below the gel point of gelatin. The diffusion of fluorescein probe slows down with the increase of gelatin concentration. The diffusion coefficient decreases from 1.5×10-10 to 9×10-12 […]-1 when the concentration of gelatin increases from 9% to 40%. […] Accordingly, the probe diffusion is more likely controlled by the concentration of gelatin rather than the cross-link density. On the other hand, the cross-link density may determine the swelling ratio of gelatin, i.e., the concentration of gelatin in aqueous solution. […]

| time to diffuse out of the gelatin coating (estimated for coating thickness 60 μm and diffusion coefficient 9×10-12 m2s-1) | fluorescence signal remaining in gelatin films (after soaking in water for 18 hours, including films not cross-linked) | SMILES |
| --- | --- | --- |
| about 67 seconds | – | O=C(O)CN(CCN(CC(=O)O)CC(=O)O)CCN(CC(=O)O)CC(=O)O [DTPA, diethylenetriaminepentaacetic acid] |
| – | still fluorescence signal | O=C1OC2(c3ccc(O)cc3Oc3cc(O)ccc32)c2ccccc21 [fluorescein] |
